Consider two compounds from US20250179022A1, “COMPOUND USED AS TYK2 INHIBITOR, PREPARATION METHOD THEREFOR, AND PHARMACEUTICAL USE THEREOF” (SHANGHAI ZHIGEN PHARMACEUTICAL & TECHNOLOGY CO. LTD., priority 2022, published 2025).

Format in all cases: cell-based
Assay [1] concerns the target T1, TYK2 (Homo sapiens, UniProt P29597, E957D).
T1 construct: host or cells: Ba/F3 (murine B lymphocytes)
The assay can be described thus: TYK2 kinase activity inhibition assay (Ba/F3-FL-TYK2-E957D cell proliferation, CellTiter-Glo). Conditions: 72 h. The method, then: The TYK2 kinase gene was introduced into wild-type murine-derived B lymphocytes (BaF3) to construct the Ba/F3-FL-TYK2-E957D stable cell line.
In this experiment, the inhibitory effect of the compounds on the proliferation of Ba/F3-FL-TYK2-E957D cells were tested, apoptosis was detected, and the IC50 value was calculated. The inhibitory activity of the compounds against TYK2 kinase was evaluated based on the IC50 value.
(§1) The tested compounds, powder and stored at room temperature, were prepared into 10 mM stock solution with DMSO and stored at −20° C. away from light for use.
Compounds were prepared into dilute solutions which was 1000 times of the final concentration. The compound was prepared into 20-times of the final concentration by diluting the compound with culture medium. 2 ul of 1000-times compound was added to per well to 98 ul of culture medium.
Cells (provided by Sundia Pharmaceutical Technology (Shanghai) Co., Ltd.) were resuspended and counted using an automated cell counter. The cell suspension was diluted to the desired density based on BaF3 seeding density of 2000 cells per well. Each well was plated with 95 ul of cells and incubated at 37° C. for stable equilibrium. 5 ul of 20-times compound was added to each well, with the wells to which the same volume of DMSO was added as a control.
The cell plate was equilibrated to room temperature. 40 ul CellTiter-Glo® Reagent was added to each well, shaken for 2 minutes and allowed to stand for 10 minutes. Detected with SpectraMax Paradigm.
• (1) IC50 was calculated using GraphPad Prism 5. • (2) % Inh=(Max signal−Compound signal)/(Max signal−Min signal)×100. • (3) Max signal was the positive control well with only the same volume of DMSO as the compound. • (4) Min signal was the negative control well with only the culture medium.

For assay [2], the target named is T2, JAK2 (Homo sapiens, UniProt O60674, cells depend on it, form not given).
T2 construct: fused on or other part: N-terminal part of TEL (ETV6) as oligomerising partner; it is the second protein of the fusion and part of the key; P41212 (Transcription factor ETV6)
T2 sequence (O60674 849-1132 limits assumed, change not shown): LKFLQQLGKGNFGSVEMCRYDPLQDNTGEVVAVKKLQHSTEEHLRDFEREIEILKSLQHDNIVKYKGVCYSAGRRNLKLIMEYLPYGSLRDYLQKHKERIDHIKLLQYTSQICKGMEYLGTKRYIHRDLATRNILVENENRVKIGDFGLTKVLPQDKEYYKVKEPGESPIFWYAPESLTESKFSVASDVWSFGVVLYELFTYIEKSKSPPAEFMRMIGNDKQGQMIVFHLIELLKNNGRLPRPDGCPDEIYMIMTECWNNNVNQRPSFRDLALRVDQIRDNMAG
The assay can be described thus: JAK family kinase selectivity assay, Ba/F3-TEL-JAK2 cell proliferation. Conditions: Ba/F3-TEL-JAK2, 72 h; read-out: Ba/F3 Cell IC50 JAK2.
From the text: (§2) There are four kinases in the JAK family, respectively TYK2, JAK1, JAK2 and JAK3. JAK family kinase genes were introduced into the wild-type murine B lymphocytes (BaF3), and four BaF3 engineered cell lines were constructed respectively (Ba/F3-FL-TYK2-E957D, Ba/F3-TEL-JAK1, Ba/F3-TEL-JAK2, Ba/F3-TEL-JAK3). The growth and proliferation of these engineered cell lines were not dependent on IL-3, but on exogenously transferred JAK family kinases.
(§3) In this experiment, the inhibitory effects of the compounds on the proliferation of four cell types, Ba/F3-FL-TYK2-E957D, Ba/F3-TEL-JAK1, Ba/F3-TEL-JAK2, and Ba/F3-TEL-JAK3 were tested, and apoptosis was detected, and the IC50 values were calculated. The inhibitory activities of the compounds against TYK2, JAK1, JAK2, and JAK3 kinases were evaluated based on the IC50 value, thus assessing the JAK family kinase selectivity of the compounds.
as §1
(§4) Compounds were formulated into dilute solutions which was 1000 times of the final concentration. The compound was prepared into 20-times of final concentration by diluting the compound with culture medium. 2 ul of 1000-times compound was added per well to 98 ul of culture medium.
(§5) Cells (provided by Sundia Pharmaceutical Technology (Shanghai) Co., Ltd.) were resuspended and counted using an automated cell counter. The cell suspension was diluted to the desired density based on BaF3 seeding density of 2000 cells per well. Each well was plated with 95 ul of cells and incubated at 37° C. for stable equilibrium. […]
(§6) The cell plate was equilibrated to room temperature. […] Detected with SpectraMax Paradigm.
(§7) • (1) IC50 was calculated using GraphPad Prism 5. • (2) % Inh=(Max signal-Compound signal)/(Max signal-Min signal)×100. • (3) Max signal was the positive control well with only the same volume of DMSO as the compound. • (4) Min signal was the negative control well with only the culture medium.

Assay [3] deals with T3, JAK3 (Homo sapiens, UniProt P52333, cells depend on it, form not given).
T3 construct: fused on or other part: N-terminal part of TEL (ETV6) as oligomerising partner; P41212 (Transcription factor ETV6)
T3 sequence (P52333 822-1111 limits assumed, change not shown): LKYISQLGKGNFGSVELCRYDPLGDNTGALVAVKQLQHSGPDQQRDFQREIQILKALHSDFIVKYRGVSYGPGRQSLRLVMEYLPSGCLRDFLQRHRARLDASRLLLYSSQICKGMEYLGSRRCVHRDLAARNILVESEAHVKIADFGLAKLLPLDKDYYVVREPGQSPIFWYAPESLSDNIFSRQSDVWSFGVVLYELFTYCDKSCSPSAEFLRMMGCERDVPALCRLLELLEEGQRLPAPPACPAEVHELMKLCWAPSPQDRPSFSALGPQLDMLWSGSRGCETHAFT
The assay can be described thus: JAK family kinase selectivity assay, Ba/F3-TEL-JAK3 cell proliferation. Conditions: Ba/F3-TEL-JAK3, 72 h; read-out: Ba/F3 Cell IC50 JAK3.
From the text: as §2, §3, §1, §4, §5, §6, §7

Assay [4] relates to IFN-α-induced STAT phosphorylation. Nature of the assay: IFN-α-induced STAT phosphorylation in human whole blood. Conditions: for higher anti-inflammatory activity compared to the control BMS-986165: IFN-α-induced STAT phosphorylation in human whole blood, relative to BMS-986165; for IC50: human whole blood, 20 ng/ml IFN-α, pSTAT5 in CD3-positive cells, read-out: IC50, IFN-α inflammatory pathway (IFN-α-induced STAT phosphorylation). The text has this:
The cytokine receptor attached to TYK2 mediates the signaling of type 1 interferon (IFN-α), which has been identified as the most important inflammatory factor of the autoimmune system. Human whole blood is induced with IFN-α, and TYK2 from lymphocytes in whole blood triggered STAT phosphorylation, which mediated subsequent inflammatory signaling. Therefore, TYK2 inhibitors have an inhibitory effect on IFN-α signaling, and the stronger the TYK2 inhibitory activity, the lower the level of STAT phosphorylation, and the stronger the corresponding anti-inflammatory effect.
In this experiment, the ability of the compounds to inhibit IFN-α-induced STAT phosphorylation in human whole blood were tested, and the IC50 values were calculated. The anti-inflammatory activity of the compounds was evaluated at the tissue level and evaluation of the inhibitory activity of compounds on the IFN-α inflammatory pathway based on the IC50 value.
The tested compound, powder and stored at room temperature, prepared into 10 mM stock solution with DMSO and stored at −80° C. in the refrigerator.
1× Fix/Lysis solution preparation: 5× Fix/Lysis and ddH2O were diluted according to 1:4 and preheated in 37° C. incubator, waiting for use.
Flow cytometric staining buffer preparation: 1 g of bovine serum albumin (BSA) and 1 mL of EDTA (0.5 M) solution were added to 500 mL of phosphate buffer solution (PBS) and stored at 4° C. in the refrigerator.
Compound dilution solution: 0.5 g of bovine serum albumin (BSA) was added to 500 mL of phosphate buffer solution (PBS), and stored at 4° C. in the refrigerator.
50 μg/mL IFN-alpha was diluted to 400 ng/mL with Compound Diluent and set aside.
67.5 μL of human whole blood was added to a 96-well plate using a 300 μL electric volley gun. 3.5 μL of prepared test compound was added, mixed well and placed in the cell culture incubator. After 60 min incubation, 400 ng/mL IFN-α (Biolegend 592702, final concentration 20 ng/ml) was added. The obtained was mixed well and placed in the cell culture incubator to continue incubation for 15 min.
After cytokine stimulation, 5 ul of PE-CD3 (BD 555333) antibody was added to each well, mixed and incubation was continued at 4° C. in the refrigerator. At the end, whole blood was transferred to a 96-well deep-well plate using a volley gun, pre-warmed 1× Fix/Lysis solution was added, and cells were lysed and fixed for 12 minutes at 37° C. in an incubator. After being washed, 400 μL of Perm III solution was added, vortexed and incubated on ice for 30 minutes. Cells were then stained by 100 μL of APC-pSTAT5 (1:100) antibody for 50 min at room temperature. This was followed by flow-through instrumentation. The expression of pSTAT5 was quantified by median fluorescence intensity after gating the CD3-positive signaling cluster.

Molecules are shown by their SMILES. Where only a bound is given, the exact number is not on record here.

T1 sequence (P29597 whole entry E957D): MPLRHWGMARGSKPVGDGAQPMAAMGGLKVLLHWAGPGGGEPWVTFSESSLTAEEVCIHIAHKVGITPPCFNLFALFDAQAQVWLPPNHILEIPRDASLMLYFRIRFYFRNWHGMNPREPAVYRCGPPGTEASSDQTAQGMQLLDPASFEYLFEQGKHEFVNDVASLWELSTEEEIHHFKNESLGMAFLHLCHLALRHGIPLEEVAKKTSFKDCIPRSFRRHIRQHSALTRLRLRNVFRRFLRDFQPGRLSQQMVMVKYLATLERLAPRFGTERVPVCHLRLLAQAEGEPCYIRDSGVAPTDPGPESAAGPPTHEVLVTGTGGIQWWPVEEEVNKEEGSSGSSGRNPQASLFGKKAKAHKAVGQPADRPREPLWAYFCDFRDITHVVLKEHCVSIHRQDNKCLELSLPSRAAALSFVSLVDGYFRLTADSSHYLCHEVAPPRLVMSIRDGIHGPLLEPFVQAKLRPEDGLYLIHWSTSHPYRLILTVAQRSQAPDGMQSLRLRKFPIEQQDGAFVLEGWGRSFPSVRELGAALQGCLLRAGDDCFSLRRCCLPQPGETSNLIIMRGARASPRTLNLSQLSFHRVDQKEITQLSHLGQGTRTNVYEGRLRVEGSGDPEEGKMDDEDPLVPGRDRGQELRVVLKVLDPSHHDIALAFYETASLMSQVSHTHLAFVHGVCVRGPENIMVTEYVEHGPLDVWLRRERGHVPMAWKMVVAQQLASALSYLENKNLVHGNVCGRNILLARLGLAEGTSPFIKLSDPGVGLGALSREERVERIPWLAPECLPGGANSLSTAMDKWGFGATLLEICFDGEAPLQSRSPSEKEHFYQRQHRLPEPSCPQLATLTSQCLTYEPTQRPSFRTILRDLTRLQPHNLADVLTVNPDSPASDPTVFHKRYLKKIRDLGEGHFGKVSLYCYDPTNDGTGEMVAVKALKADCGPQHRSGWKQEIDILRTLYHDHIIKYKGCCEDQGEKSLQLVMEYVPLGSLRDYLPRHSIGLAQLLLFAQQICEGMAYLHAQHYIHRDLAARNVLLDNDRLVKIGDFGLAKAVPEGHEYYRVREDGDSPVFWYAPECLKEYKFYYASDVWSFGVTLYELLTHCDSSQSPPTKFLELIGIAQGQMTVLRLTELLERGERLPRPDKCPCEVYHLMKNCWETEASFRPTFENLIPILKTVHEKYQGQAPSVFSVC

Turning to `[2H]C([2H])([2H])NC(=O)c1nnc(NC(=O)C2CC2)cc1Nc1nc(N)c(Cl)cc1[S@@](C)(=O)=NC` [Example 28], the IC50 in assay [1] was 0.6 nM; in assay [4], 4 nM. Further, the GI50 in assay [2] and in assay [3] was above 1000 nM throughout. For the same compound, the “higher anti-inflammatory activity compared to the control BMS-986165” value in assay [4] is reported as “about 6 fold”.
Take `[2H]C([2H])([2H])NC(=O)c1nnc(NC(=O)C2CC2)cc1Nc1nc(N)c(Cl)cc1[S@](C)(=N)=O` [Example 29, (R)-4-((6-amino-5-chloro-3-(S-methylsulfoximino)pyridin-2-yl)amino)-6-(cyclopropylcarboxamido)-N-(methyl-d3)pyridazine-3-carboxamide]: the IC50 was determined as 1.1 nM in assay [1] and 3.7 nM in assay [4]. Also, the GI50 in assay [2] and in assay [3] was above 1000 nM throughout. For the same compound, the “higher anti-inflammatory activity compared to the control BMS-986165” value in assay [4] was “about 6 fold”.
